Data taken from ChEMBL document CHEMBL1201862, “PubChem BioAssay data set” (2004).
Calls of active or inactive are those of the source.

How the values were obtained:
[1] = target: T1, High affinity choline transporter 1 (Homo sapiens, UniProt Q9GZV3); assay: human choline transporter blockers, potency – cell-based, 5-point CRC, membrane potential dye, dose response (AID 504840); type: functional
T1 sequence (Q9GZV3 whole entry): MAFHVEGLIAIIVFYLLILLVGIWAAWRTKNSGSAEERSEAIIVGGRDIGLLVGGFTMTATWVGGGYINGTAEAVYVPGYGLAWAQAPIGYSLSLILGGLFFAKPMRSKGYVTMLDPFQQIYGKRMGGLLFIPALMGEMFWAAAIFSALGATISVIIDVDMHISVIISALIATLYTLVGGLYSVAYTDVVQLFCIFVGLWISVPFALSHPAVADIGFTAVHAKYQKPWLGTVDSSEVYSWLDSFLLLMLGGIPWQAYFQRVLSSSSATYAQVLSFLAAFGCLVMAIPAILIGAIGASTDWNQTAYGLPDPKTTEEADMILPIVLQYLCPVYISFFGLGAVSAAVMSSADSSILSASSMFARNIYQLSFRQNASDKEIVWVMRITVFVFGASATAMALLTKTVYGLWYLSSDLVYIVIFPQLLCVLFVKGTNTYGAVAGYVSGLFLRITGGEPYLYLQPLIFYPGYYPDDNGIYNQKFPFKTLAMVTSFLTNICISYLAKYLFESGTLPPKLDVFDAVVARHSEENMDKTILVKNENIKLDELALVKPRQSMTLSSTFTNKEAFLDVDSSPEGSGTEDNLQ

[2] = Trypanosoma cruzi growth suppression in host cells – NIH3T3 host cells, beta-gal luminescence, confirmation (AID 2044); type: functional, cell-based;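 further: intracellular parasites grown in NIH/3T3 mouse fibroblasts as host cells; luminescent beta-galactosidase reporter signal from transgenic T. cruzi replicating inside host cells; inhibitors lower the luminescence signal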
[3] = tested on: HEK293; assay: EBV LMP1 TES2 canonical NF-kB signalling blockers – cell-based, HEK293, luciferase, cherry-pick, dose response (AID 588343); type: functional; settings: Homo sapiens
[4] = reduction of Shn3 3'UTR-driven luciferase in osteoblasts – cell-based, Clone20 osteoblasts, firefly luciferase, cherry-picked, dose response (AID 624132); type: functional;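 further: firefly luciferase luminescence from reporter carrying the Shn3 3'UTR in osteoblasts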
[5] = NIH3T3 cell viability loss – ATP luminescence, mouse fibroblasts, counter-screen, dose response (AID 2010); type: functional, cell-based;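 further: cells exposed to compound for about 90 hours before reading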
[6] = loss of viability in HepG2 cells – cell-based, CellTiter-Glo, cherry-picked, cytotoxicity control for Shn3 inhibitor project, dose response (AID 624134); type: functional
[7] = non-specific 3'UTR reporter inhibition in Clone20-Shn3RL – cell-based, Renilla luciferase, cherry-picked, counter-screen for Shn3 inhibitor project, dose response (AID 624133); type: functional
[8] = blockers of CRF-binding protein–CRF-R2 complex – cell-based, uHTS hits, 384-well, dose response (AID 651639); type: functional, Homo sapiens; settings: read-out: IC50_Mean
[9] = target: T2, Corticotropin-releasing factor receptor 2/Corticotropin-releasing factor-binding protein (Homo sapiens, UniProt P24387+Q13324); assay: activators of CRF receptor 2 with binding protein – uHTS hits, confirmation (AID 602473); type: functional; settings: read-out: EC50_Mean
T2 sequence (Q13324 whole entry): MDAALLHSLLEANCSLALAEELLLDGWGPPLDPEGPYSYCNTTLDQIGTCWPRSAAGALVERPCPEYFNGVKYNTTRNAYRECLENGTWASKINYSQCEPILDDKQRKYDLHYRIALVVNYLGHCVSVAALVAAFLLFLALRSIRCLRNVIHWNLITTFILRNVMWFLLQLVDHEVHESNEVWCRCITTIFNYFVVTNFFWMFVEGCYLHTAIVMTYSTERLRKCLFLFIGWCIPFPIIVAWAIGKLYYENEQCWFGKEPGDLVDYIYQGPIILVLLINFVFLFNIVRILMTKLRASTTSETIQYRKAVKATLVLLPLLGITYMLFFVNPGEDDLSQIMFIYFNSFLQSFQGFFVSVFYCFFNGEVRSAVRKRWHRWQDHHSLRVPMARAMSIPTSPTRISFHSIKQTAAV
T2 sequence (P24387 whole entry): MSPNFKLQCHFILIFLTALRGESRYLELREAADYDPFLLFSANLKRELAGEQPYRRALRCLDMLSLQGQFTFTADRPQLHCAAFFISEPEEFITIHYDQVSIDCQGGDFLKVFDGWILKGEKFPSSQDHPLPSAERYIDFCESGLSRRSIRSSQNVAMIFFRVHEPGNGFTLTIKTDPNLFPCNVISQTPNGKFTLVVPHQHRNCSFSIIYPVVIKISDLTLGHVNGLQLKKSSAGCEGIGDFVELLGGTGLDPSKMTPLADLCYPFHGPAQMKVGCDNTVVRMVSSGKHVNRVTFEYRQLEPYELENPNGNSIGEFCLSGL

[10] = target: T2, Corticotropin-releasing factor receptor 2/Corticotropin-releasing factor-binding protein; assay: Dose Response confirmation of uHTS hits for small molecule antagonists of the CRF-binding protein and CRF-R2 receptor complex.; type: functional; settings: read-out: IC50_Mean
[11] = NIH-3T3 fibroblast cytotoxicity, dose response, cytotoxicity control, cell-based, fluorescence, Alamar Blue, secondary assay (AID 2327); type: functional;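 further: NIH-3T3 mouse fibroblasts cultured with fluconazole at 8 µg/mL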
[12] = fluconazole-exposed Candida albicans growth modulators – fluorescence, retest, confirmation (AID 2467); type: functional, cell-based
[13] = target: T3, Protein skinhead-1 (Caenorhabditis elegans, UniProt P34707); type: functional
T3 sequence (P34707 whole entry): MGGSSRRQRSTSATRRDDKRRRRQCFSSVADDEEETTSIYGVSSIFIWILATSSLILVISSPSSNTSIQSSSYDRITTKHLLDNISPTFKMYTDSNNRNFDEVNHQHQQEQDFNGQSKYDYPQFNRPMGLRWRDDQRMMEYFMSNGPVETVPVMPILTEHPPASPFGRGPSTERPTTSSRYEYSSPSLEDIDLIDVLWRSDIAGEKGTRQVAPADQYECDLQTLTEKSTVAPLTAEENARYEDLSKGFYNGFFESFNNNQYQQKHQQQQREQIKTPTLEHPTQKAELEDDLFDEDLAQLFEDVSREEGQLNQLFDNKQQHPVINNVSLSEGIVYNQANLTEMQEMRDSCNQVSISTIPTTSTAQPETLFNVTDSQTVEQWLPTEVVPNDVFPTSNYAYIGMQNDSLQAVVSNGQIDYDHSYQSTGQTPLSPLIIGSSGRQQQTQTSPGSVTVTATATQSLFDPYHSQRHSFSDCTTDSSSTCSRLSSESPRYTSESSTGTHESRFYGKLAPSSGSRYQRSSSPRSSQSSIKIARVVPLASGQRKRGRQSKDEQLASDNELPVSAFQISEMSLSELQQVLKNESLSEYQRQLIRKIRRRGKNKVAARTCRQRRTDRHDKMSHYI

[14] = tested on: H9c2; assay: cells; type: functional, cell-based; settings: Rattus norvegicus, H9c2, Myocardium;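 further: confirmatory concentration-response retest of ultra-high-throughput screening hits for modulation of myocardial damage; cell death induced by hydrogen peroxide oxidative stress; compound pretreatment for 60 min then peroxide exposure for 2 h; potency is for protecting the cells against peroxide damage rather than for killing them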
[15] = P. falciparum Dd2 growth inhibitors, dose response, SYBR Green, cherry-picked samples (AID 1159567); type: functional, cell-based
[16] = toxicity to human hepatoma HepG2 cells – cell-based, cherry-picked samples, cytotoxicity control, dose response (AID 1159577); type: functional

With Cc1nn(C(C)C(=O)NC(C)CCc2ccccc2)c(=O)c2cc3occc3n12 (stereo unspecified) the IC50 [1] was 17.4 µM (active).
For CCCc1nc2ccc(Br)cc2c(=O)n1-c1ccc([N+](=O)[O-])c(C(F)(F)F)c1, the EC50 [2] was 2 µM (active), the AC50 [3] was 29.2 µM (active) and the AC50 [4] was 15.7 µM (active). For the same compound, the EC50 [5] was > 60 µM (not active), the AC50 [6] was 7.4 µM (active) and the AC50 [7] was 11.7 µM (active).
For NC(=O)c1ccc(NCc2ccco2)c([N+](=O)[O-])c1, the IC50 [8] was 3.57 µM (active), the EC50 [9] was > 53 µM (inactive) and the IC50 [10] was 5.79 µM (active).
For Brc1cccc(CSc2nnc(-c3ccncc3)o2)c1, the EC50 [11] was 41.1 µM (active), the EC50 [12] was > 38 µM (not active) and the AC50 [3] was 47 µM (active).
In the case of CC1(CCCc2ccc(N(CCCl)CCCl)cc2)NC(=O)NC1=O (stereo unspecified), the AC50 [3] is reported as 4.51 µM (active).
With O=c1oc2ccc3ccccc3c2cc1-c1nnc(-c2ccccc2)o1 the IC50 [13] was > 100 µM (inactive), the IC50 [8] was 0.39 µM (active) and the EC50 [9] was > 53 µM (inactive). The IC50 [14] was > 79 µM (inactive) and the IC50 [10] was < 0.368 µM (active).
In the case of Cc1cc(C)cc(OC(C)C(=O)Nc2ccc(S(=O)(=O)Nc3cc(C)nc(C)n3)cc2)c1 (stereo unspecified), the IC50 [1] is reported as 13.2 µM (active).
In the case of C[C@@H]1CN([C@@H](C)CO)C(=O)Cc2cc(NC(=O)Nc3ccccc3)ccc2O[C@H]1CN(C)Cc1ccc2c(c1)OCO2, the AC50 [15] is reported as 3.97 µM (active) and the AC50 [16] is reported as > 39 µM (inactive).
In the case of COc1ccc(NC(=O)Nc2cccc3c2O[C@H](CN(C)Cc2ccc(-c4ccccc4)cc2)[C@@H](C)CN([C@@H](C)CO)C3=O)cc1, the AC50 [15] is reported as 3.25 µM (active) and the AC50 [16] is reported as 16.2 µM (active).
With COc1ccc(S(=O)(=O)N2CC[C@@H]3[C@H]2c2cc(C#Cc4ccccc4OC)ccc2N[C@@H]3CO)cc1 the AC50 [15] was 11.3 µM (active) and the AC50 [16] was > 39 µM (inactive).
